Reference: patent US11090304B2 (Amgen Inc., priority 2018, dated 2021)
pIC50: −log10 of the molar value. Where two headings read alike, the source gives them in different places.

Assays:
[1] = system: Phosphorylation of ERK1/2 in MIA PaCa-2 cells; assay: Phospho-ERK1/2 MSD assay in MIA PaCa-2 cells; assay type: cell-based; details: Homo sapiens
Outline: (§1)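 MSD electrochemiluminescence readout of phospho-ERK1/2 in whole-cell lysates, IC50 by 4-parameter logistic fit. Compound titrations were applied for 2 or 4 h at 37 °C, 5% CO2, followed by 10 ng/mL EGF stimulation for 10 min before lysis.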

[2] = target: GDP-bound KRAS protein (aa 1-169), containing both G12C and C118A amino acid substitutions (Homo sapiens, UniProt P01116, C118A/G12C); assay: Coupled nucleotide exchange assay (SOS-mediated, AlphaScreen); assay type: biochemical; details: for Coupled exchange IC50 (2 h): 2 h compound pre-incubation
GDP-bound KRAS protein (aa 1-169), containing both G12C and C118A amino acid substitutions, sequence (P01116 1-169 isoform P01116-2 G12C/C118A): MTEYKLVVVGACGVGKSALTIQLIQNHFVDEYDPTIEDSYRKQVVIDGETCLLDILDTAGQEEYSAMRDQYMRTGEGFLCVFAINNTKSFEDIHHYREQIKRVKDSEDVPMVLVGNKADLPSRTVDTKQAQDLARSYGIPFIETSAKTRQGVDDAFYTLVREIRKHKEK

[3] = system: Phosphorylation of ERK1/2 in A549 cells; assay: Phospho-ERK1/2 MSD assay in A549 cells; assay type: cell-based; details: Homo sapiens
Outline: as §1

[4] = MIA PaCa-2, 2 h, read-out: p-ERK IC50 (2 h; MIA PaCa-2), 2 h compound treatment
[5] = A549, 2 h, read-out: p-ERK IC50 (2 h; A549), 2 h compound treatment
[6] = MIA PaCa-2, 4 h, read-out: p-ERK IC50 (4 h; MIA PaCa-2), 4 h compound treatment
[7] = A549, 4 h, read-out: p-ERK IC50 (4 h; A549), 4 h compound treatment

Compound	pIC50 [1, 4]	Coupled exchange IC50 (5 min) ([2]; 5 min compound pre-incubation)	pIC50 [3, 5]	Coupled exchange IC50 (2 h) [2]	pIC50 [1, 6]	pIC50 [3, 7]	pIC50 ([2]; read-out: Coupled exchange IC50 (5 min), 5 min compound pre-incubation)
C=CC(=O)N1CCN(c2nc(=O)n(-c3nccn3C(C)C)c3nc(-c4c(O)cccc4F)c(Cl)cc23)[C@@H](C)C1 [Example 54-13, 6-chloro-7-(2-fluoro-6-hydroxy-phenyl)-4-((2S)-2-methyl-4-(2-propenoyl)-1-piperazinyl)-1-(1-(2-propanyl)-1H-imidazol-2-yl)pyrido[2,3-d]pyrimidin-2(1H)-one]	5.59	0.811 | nda μM	≤ 5.00	–	–	–	–
C=CC(=O)N1CCN(c2nc(=O)n(-c3nocc3C3CC3)c3nc(-c4c(O)cccc4F)c(Cl)cc23)[C@@H](C)C1 [Example 54-24, 6-chloro-1-(4-cyclopropyl-1,2-oxazol-3-yl)-7-(2-fluoro-6-hydroxyphenyl)-4-((2S)-2-methyl-4-(2-propenoyl)-1-piperazinyl) pyrido[2,3-d]pyrimidin-2(1H)-one]	6.03	0.797 | nda μM	≤ 5.00	–	–	–	–
C=CC(=O)N1CCN(c2nc(=O)n(-c3c(Cl)cccc3Cl)c3nc(-c4ccccc4F)c(Cl)cc23)[C@@H](C)C1 [Example 54-30, 6-chloro-1-(2,6-dichlorophenyl)-7-(2-fluorophenyl)-4-((2S)-2-methyl-4-(2-propenoyl)-1-piperazinyl) pyrido[2,3-d]pyrimidin-2(1H)-one]	6.34	0.824 | nda μM	≤ 5.00	–	–	–	–
C=CC(=O)N1CCN(c2nc(=O)n(-c3ccccc3CC)c3nc(-c4ccccc4F)c(Cl)cc23)[C@@H](C)C1 [Example 54-31, 6-chloro-1-(2-ethylphenyl)-7-(2-fluorophenyl)-4-((2S)-2-methyl-4-(2-propenoyl)-1-piperazinyl) pyrido[2,3-d]pyrimidin-2(1H)-one]	6.63	0.395 | nda μM	≤ 5.00	–	–	–	–
C=CC(=O)N1CCN(c2nc(=O)n(-c3c(C)cncc3C)c3nc(-c4c(O)cccc4F)c(Cl)cc23)[C@@H](C)C1 [Example 54-41, 6-chloro-1-(3,5-dimethyl-4-pyridinyl)-7-(2-fluoro-6-hydroxyphenyl)-4-((2S)-2-methyl-4-(2-propenoyl)-1-piperazinyl) pyrido[2,3-d]pyrimidin-2(1H)-one]	5.54	0.724 | nda μM	≤ 5.00	–	–	–	–
C=CC(=O)N1CCN(c2nc(=O)n(-c3ncccc3C(C)C)c3nc(-c4c(O)cccc4F)c(Cl)cc23)[C@@H](C)C1 [Example 54-57, 6-chloro-7-(2-fluoro-6-hydroxyphenyl)-4-((2S)-2-methyl-4-(2-propenoyl)-1-piperazinyl)-1-(3-(2-propanyl)-2-pyridinyl) pyrido[2,3-d]pyrimidin-2(1H)-one]	7.28	–	≤ 5.00	–	–	–	7.08
C=CC(=O)N1CCN(c2nc(=O)n(-c3ccncc3C3CC3)c3nc(-c4c(O)cccc4F)c(Cl)cc23)[C@@H](C)C1 [Example 54-59, 6~chloro-1-(3-cyclopropyl-4-pyridinyl)-7-(2-fluoro-6-hydroxyphenyl)-4-((2S)-2-methyl-4-(2-propenoyl)-1-piperazinyl) pyrido[2,3-d]pyrimidin-2(1H)-one]	6.15	0.22 | nda μM	≤ 5.00	–	–	–	–
C=CC(=O)N1CCN(c2nc(=O)n(-c3c(CC)cccc3CC)c3nc(-c4ccccc4F)c(Cl)cc23)[C@@H](C)C1 [Example 54-60, 6-ehloro-1-(2,6-diethylphenyl)-7-(2-fluorophenyl)-4-((2S)-2-methyl-4-(2-propenoyl)-1-piperazinyl) pyrido[2,3-d]pyrimidin-2(1H)-one]	6.84	0.216 µM	≤ 5.00	0.093 µM	7.04	≤ 4.95	–
C=CC(=O)N1CCN(c2nc(=O)n(-c3c(CC)cccc3CC)c3nc(-c4ccccc4)c(Cl)cc23)[C@@H](C)C1 [Example 54-62, 6-chloro-1-(2,6-diethylphenyl)-4-((2S)-2-methyl-4-(2-propenoyl)-1-piperazinyl)-7-phenyl-pyrido[2,3-d]pyrimidin-2(1H)-one]	6.39	0.808 µM	≤ 5.00	0.172 µM	6.65	≤ 4.00	–
C=CC(=O)N1CCN(c2nc(=O)n(-c3c(CC)cccc3CC)c3nc(-c4ccccc4O)c(Cl)cc23)[C@@H](C)C1 [Example 54-63, 6-chloro-1-(2,6-diethylphenyl)-7-(2-hydroxyphenyl)-4-((2S)-2-methyl-4-(2-propenoyl)-1-piperazinyl) pyrido[2,3-d]pyrimidin-2(1H)-one]	6.54	0.845 µM	–	0.164 µM	6.87	≤ 4.48	–

Second part, led by results:

pIC50 [1, 4]	Coupled exchange IC50 (5 min) ([2]; 5 min compound pre-incubation)	pIC50 [3, 5]	Coupled exchange IC50 (2 h) [2]	pIC50 [1, 6]	pIC50 [3, 7]	Compound	pIC50 ([2]; read-out: Coupled exchange IC50 (5 min), 5 min compound pre-incubation)
6.61	0.347 µM	≤ 4.48	0.097 µM	–	–	C=CC(=O)N1CCN(c2nc(=O)n(-c3c(CC)cccc3CC)c3nc(-c4ccccc4C4CC4)c(Cl)cc23)[C@@H](C)C1 [Example 54-22, 6-chloro-7-(2-cyclopropyl-phenyl)-1-(2,6-diethyl-phenyl)-4-((2S)-2-methyl-4-(2-propenoyl)-1-piperazinyl) pyrido[2,3-d]pyrimidin-2(1H)-one]	–
6.91	0.103 | nda μM	≤ 5.00	–	–	–	C=CC(=O)N1CCN(c2nc(=O)n(-c3c(CC)cccc3CC)c3nc(-c4ccccc4C(C)C)c(Cl)cc23)[C@@H](C)C1 [Example 54-23, 6-chloro-1-(2,6-diethylphenyl)-4-((2S)-2-methyl-4-(2-propenoyl)-1-piperazinyl)-7-(2-(2-propanyl)phenyl)pyrido [2,3-d]pyrimidin-2(1H)-one]	–
6.10	1.963 | nda μM	≤ 5.00	–	–	–	C=CC(=O)N1CCN(c2nc(=O)n(-c3ccccc3Cl)c3nc(-c4ccccc4F)c(Cl)cc23)[C@@H](C)C1 [Example 54-32, 6-chloro-1-(2-chlorophenyl)-7-(2-fluorophenyl)-4-((2S)-2-methyl-4-(2-propenoyl)-1-piperazinyl) pyrido[2,3-d]pyrimidin-2(1H)-one]	–
6.67	0.176 | nda μM	≤ 5.00	–	–	–	C=CC(=O)N1CCN(c2nc(=O)n(-c3c(Cl)cccc3Cl)c3nc(-c4c(O)cccc4F)c(Cl)cc23)[C@@H](C)C1 [Example 54-33, 6-chloro-1-(2,6-dichlorophenyl)-7-(2-fluoro-6-hydroxyphenyl)-4-((2S)-2-methyl-4-(2-propenoyl)-1-piperazinyl) pyrido[2,3-d]pyrimidin-2(1H)-one]	–
5.62	0.779 | nda μM	≤ 5.00	–	–	–	C=CC(=O)N1CCN(c2nc(=O)n(-c3c(C)ncnc3C)c3nc(-c4c(O)cccc4F)c(Cl)cc23)[C@@H](C)C1 [Example 54-48, 6-chloro-1-(4,6-dimethyl-5-pyrimidinyl)-7-(2-fluoro-6-hydroxyphenyl)-4-((2S)-2-methyl-4-(2-propenoyl)-1-piperazinyl) pyrido[2,3-d]pyrimidin-2(1H)-one]	–
–	–	–	nda | 0.379 μM	5.86	≤ 4.95	C=CC(=O)N1CCN(c2nc(=O)n(-c3c(CC)cccc3CC)c3nc(Cl)c(Cl)cc23)[C@@H](C)C1 [Example 54-61, 6,7-dichloro-1-(2,6-diethylphenyl)-4-((2S)-2-methyl-4-(2-propenoyl)-1-piperazinyl) pyrido[2,3-d]pyrimidin-2(1H)-one]	–
